Converted amounts (≈) assume the structure as drawn. The source made the active and inactive calls. No cut-off for these calls is given here.
Columns and labels:
[1] = test system: A549; test: Antiproliferative activity against human A549 cells assessed as inhibition of cell growth measured after 72 hrs by SRB method; assay type: functional, cell-based; conditions: A549, 72 h
[2] = Permeability of the compound in PBS buffer assessed as drug recovery at pH 7.4 incubated for 16 hrs by PAMPA method; assay type: ADME; conditions: read-out: Drug recovery
[3] = Water solubility of the compound […] at pH 9.0 incubated for 24 hrs under shaking condition by HPLC analysis; assay type: physicochemical
[4] = Water solubility of the compound in PBS buffer at pH 7.4 incubated for 24 hrs under shaking condition by HPLC analysis; assay type: physicochemical
[5] = Water solubility of the compound in PBS buffer at pH 2.0 incubated for 24 hrs under shaking condition by HPLC analysis; assay type: physicochemical
[6] = test system: A549; test: Antitumor activity against human A549 cells xenografted in female BALB/c nude mouse model assessed as decrease in Ki-67 expression at 10 mg/kg via gavage by immunochemical staining based analysis; assay type: functional, organism-based
[7] = test system: A549; test: Downregulation of Smad2/3 phosphorylation level in human A549 cells measured after 48 hrs by Western blot analysis; assay type: functional, cell-based; conditions: dose 0.05-0.5 µM
[8] = Toxicity in female BALB/c nude mouse assessed as effect on body weight loss at 10 mg/kg via gavage fed with corn oil for every other day; assay type: organism-based; conditions: in vivo, po
[9] = test system: NCI-H522; test: Antiproliferative activity against human NCI-H522 cells assessed as inhibition of cell growth measured after 72 hrs by SRB method; assay type: functional, cell-based; conditions: NCI-H522, 72 h
[10] = test system: A549; test: Inhibition of cell migration in human A549 cells incubated for 48 hrs by wound healing assay; assay type: functional, cell-based; conditions: dose 0.05-0.5 µM
[11] = test system: A549; test: Induction of cell cycle arrest in human A549 cells assessed as accumulation at G2/M phase at high concentration measured after 48 hrs by flow cytometric analysis; assay type: functional, cell-based
[12] = test system: A549; test: Antitumor activity against human A549 cells xenografted in female BALB/c nude mouse model assessed as decrease in tumor volume at 10 mg/kg via gavage fed with corn oil and measured every other day; assay type: functional, organism-based
[13] = test system: A549; test: Downregulation of TbetaRI protein expression in human A549 cells measured after 48 hrs by Western blot analysis; assay type: functional, cell-based; conditions: dose 0.05-0.5 µM
[14] = test system: A549; test: Antiproliferative activity against human A549 cells harbouring si-NC at 0.5 uM by Western blot analysis relative to control; assay type: functional
[15] = test system: A549; test: Antitumor activity against human A549 cells xenografted in female BALB/c nude mouse model assessed as decrease in tumor weight at 10 mg/kg via gavage fed with corn oil and measured every other day; assay type: functional, organism-based
[16] = test system: A549; test: Antiproliferative activity against human A549 cells harbouring TbetaI knockout at 0.5 uM by Western blot analysis; assay type: functional, cell-based
[17] = test system: A549; test: Induction of cell apoptosis in human A549 cells assessed as increase in early apoptotic cells measured after 48 hrs by Annexin V-FITC/PI staining based flow cytometry analysis; assay type: functional; conditions: dose 0.05-0.5 µM
[18] = test system: NCI-H1299; test: Antiproliferative activity against human NCI-H1299 cells harbouring TbetaI by Western blot analysis; assay type: functional, cell-based; conditions: dose 0.05-0.5 µM
[19] = test system: A549; test: Induction of cell cycle arrest in human A549 cells assessed as accumulation at G2/M phase measured after 48 hrs by flow cytometric analysis; assay type: functional, cell-based; conditions: dose 0.05-0.5 µM
[20] = test system: A549; test: Inhibition of cell migration in human A549 cells at 0.5 uM incubated for 48 hrs by wound healing assay relative to control; assay type: functional
[21] = test system: A549; test: Induction of cell apoptosis in human A549 cells assessed as increase in early apoptotic cells at 0.05 uM measured after 48 hrs by Annexin V-FITC/PI staining based flow cytometry analysis; assay type: functional
[22] = test system: A549; test: Inhibition of cell invasion in human A549 cells at 0.5 uM incubated for 48 hrs by crystal violet staining based transwell assay relative to control; assay type: functional
[23] = test system: A549; test: Inhibition of cell invasion in human A549 cells incubated for 48 hrs by crystal violet staining based transwell assay; assay type: functional; conditions: dose 0.05-0.5 µM
[24] = test system: NCI-H441; test: Antiproliferative activity against human NCI-H441 cells assessed as inhibition of cell growth measured after 72 hrs by SRB method; assay type: functional, cell-based; conditions: NCI-H441, 72 h
[25] = test system: A549; test: Inhibition of colony formation in human A549 cells at 0.5 uM measured after 48 days by crystal violet staining based inverted microscopic analysis relative to control; assay type: functional; conditions: A549, 1152 h, time 48 day
[26] = test system: NCI-H1299; test: Antiproliferative activity against human NCI-H1299 cells assessed as inhibition of cell growth measured after 72 hrs by SRB method; assay type: functional, cell-based; conditions: NCI-H1299, 72 h
[27] = test system: NCI-H1299; test: Inhibition of colony formation in human NCI-H1299 cells at 0.05 to 0.5 uM measured after 48 hrs by crystal violet staining based inverted microscopic analysis; assay type: functional, cell-based; conditions: dose 0.05-0.5 µM
[28] = test system: A549; test: Antitumor activity against human A549 cells xenografted in female BALB/c nude mouse model assessed as decrease in TbetaRI expression level at 10 mg/kg via gavage by Western blot analysis; assay type: functional, organism-based
[29] = test system: A549; test: Antitumor activity against human A549 cells xenografted in female BALB/c nude mouse model assessed as decrease in TbetaRI level at 10 mg/kg via gavage by immunochemical staining based analysis; assay type: functional, organism-based

O=C(NC1CCC(O)C1)c1cccc2c3c([nH]c12)CN(C(=O)Cc1ccccc1F)CC3 (stereo not drawn)
IC50 [1]: 220 nM

CN(Cc1cnc2nc(N)nc(N)c2n1)c1ccc(C(=O)N[C@@H](CCC(=O)O)C(=O)O)cc1 [METHOTREXATE]
recovery at 16 h [2]: 96.2%

O=C(Cc1ccccc1F)N1CCc2c([nH]c3c(C(=O)N4CCN(C5COC5)CC4)cccc23)C1
IC50 [1]: > 5000 nM

O=C(Cc1ccccc1)N1CCc2c([nH]c3ccccc23)C1
solubility thermodynamic at 24 h [3]: 10.7 µM (≈ 3.11 µg/mL) | solubility thermodynamic at 24 h [4]: 7.24 µM (≈ 2.1 µg/mL) | IC50 [1]: 9130 nM | recovery at 16 h [2]: 24.4% | solubility thermodynamic at 24 h [5]: 2.23 µM (≈ 0.648 µg/mL)

NC1CCC(OC(=O)c2cccc3c4c([nH]c23)CN(C(=O)Cc2ccccc2F)CC4)CC1 (stereo not drawn)
IC50 [1]: > 5000 nM

C[C@]12CC[C@H]3[C@@H](CCC4=CC(=O)CC[C@@]43C)[C@@H]1CC[C@@H]2O [TESTOSTERONE]
recovery at 16 h [2]: 85.6%

O=C(NCCO)c1cc(NC(=O)C2CCNCC2)cc2c3c([nH]c12)CN(C(=O)Cc1ccccc1F)CC3
IC50 [1]: > 5000 nM

O=C(NC12CC3CC(CC(O)(C3)C1)C2)c1cccc2c3c([nH]c12)CN(C(=O)Cc1ccccc1F)CC3
IC50 [1]: 130 nM

NCCC(=O)Nc1cc(C(=O)NCCO)c2[nH]c3c(c2c1)CCN(C(=O)Cc1ccccc1F)C3
IC50 [1]: > 5000 nM

O=C(NCCO)c1cccc2c3c([nH]c12)CN(C(=O)Cc1c(F)cccc1F)CC3
IC50 [1]: > 5000 nM

O=C(Cc1ccccc1F)N1CCc2c([nH]c3c(C(=O)N4CCNCC4)cccc23)C1
IC50 [1]: > 5000 nM

O=C(NCCO)c1cccc2c3c([nH]c12)CN(C(=O)Cc1ccccc1F)CC3
IC50 [1]: 220 nM

O=C(NCCO)c1cccc2c3c([nH]c12)CN(C(=O)Nc1ccccc1F)CC3
IC50 [1]: > 5000 nM

CC(=O)Nc1cc(C(=O)NCCO)c2[nH]c3c(c2c1)CCN(C(=O)Cc1ccccc1F)C3
IC50 [1]: > 5000 nM

O=C(Cc1ccccc1F)N1CCc2c([nH]c3c(C(=O)N4CCC(O)CC4)cccc23)C1
IC50 [1]: > 5000 nM

O=C(NC1CCC(O)CC1)c1cccc2c3c([nH]c12)CN(C(=O)Cc1ccccc1F)CC3 (stereo not drawn)
IC50 [1]: 490 nM

O=C(Cc1ccccc1F)N1CCc2c([nH]c3c(C(=O)N4CCC(CO)CC4)cccc23)C1
IC50 [1]: > 5000 nM

NC1CCC(NC(=O)c2cccc3c4c([nH]c23)CN(C(=O)Cc2ccccc2F)CC4)C1 (stereo not drawn)
IC50 [1]: > 5000 nM

O=C(NCCO)c1cccc2c3c([nH]c12)CN(C(=O)NCc1ccccc1F)CC3
IC50 [1]: > 5000 nM

O=C(NC1CCCCC1O)c1cccc2c3c([nH]c12)CN(C(=O)Cc1ccccc1F)CC3 (stereo not drawn)
IC50 [1]: > 5000 nM

O=C(Cc1ccccc1F)N1CCc2c([nH]c3c(C(=O)N4CCC(O)C4)cccc23)C1 (stereo not drawn)
IC50 [1]: > 5000 nM

O=C(NCCO)c1cccc2c3c([nH]c12)CN(C(=O)Cc1cccs1)CC3
IC50 [1]: 380 nM

O=C(NC1CCCC1O)c1cccc2c3c([nH]c12)CN(C(=O)Cc1cccs1)CC3 (stereo not drawn)
IC50 [1]: 70 nM

O=C(NCCO)c1cccc2c3c([nH]c12)CN(C(=O)Cc1ccco1)CC3
IC50 [1]: 4010 nM

O=C(NC1CCCC1O)c1cccc2c3c([nH]c12)CN(C(=O)Cc1ccccc1F)CC3 (stereo not drawn)
IC50 [1]: 930 nM

O=C(NC1CCC(O)C1)c1cccc2c3c([nH]c12)CN(C(=O)Cc1cccs1)CC3 (stereo not drawn)
solubility thermodynamic at 24 h [3]: 50.4 µM (≈ 21.3 µg/mL) | Activity [6]: Active | Activity [7]: Dose-dependent-effect | solubility thermodynamic at 24 h [4]: 41.4 µM (≈ 17.5 µg/mL) | Activity [8]: Non-toxic | IC50 [1]: 50 nM | recovery at 16 h [2]: 65.8% | IC50 [9]: 260 nM | inhibition [10]: Dose-dependent-effect | Activity [11]: Active | Activity [12]: Active | Activity [13]: Dose-dependent-effect | Activity [14]: 100% | Activity [15]: Active | Activity [16]: inactive | Activity [17]: Dose-dependent-effect | Activity [18]: Dose-dependent-effect | Activity [19]: Dose-dependent-effect | inhibition at 0.5 µM [20]: 100% | Activity [21]: Active | inhibition at 0.5 µM [22]: 100% | inhibition [23]: Dose-dependent-effect | IC50 [24]: 90 nM | solubility thermodynamic at 24 h [5]: 40 µM (≈ 16.9 µg/mL) | inhibition at 0.5 µM [25]: 100% | IC50 [26]: 210 nM | inhibition [27]: Active | Activity [28]: Active | Activity [29]: Active

O=C(NCCO)c1cc(NC(=O)C2CCOCC2)cc2c3c([nH]c12)CN(C(=O)Cc1ccccc1F)CC3
IC50 [1]: > 5000 nM

O=C(NC1CCCC(O)C1)c1cccc2c3c([nH]c12)CN(C(=O)Cc1ccccc1F)CC3 (stereo not drawn)
IC50 [1]: 120 nM

C=CC(=O)Nc1cc(C(=O)NCCO)c2[nH]c3c(c2c1)CCN(C(=O)Cc1ccccc1F)C3
IC50 [1]: > 5000 nM

O=C(NCCO)c1cccc2c3c([nH]c12)CN(S(=O)(=O)Cc1ccccc1F)CC3
IC50 [1]: 1640 nM

O=C(NC1CCC(C(=O)O)C1)c1cccc2c3c([nH]c12)CN(C(=O)Cc1ccccc1F)CC3 (stereo not drawn)
IC50 [1]: > 5000 nM

Reference: ChEMBL document CHEMBL6115037, “Discovery of novel small molecules targeting TGF-β signaling for the treatment of non-small cell lung cancer” (Eur J Med Chem, 2025)
